Test results as given in ChEMBL document CHEMBL1201862, “PubChem BioAssay data set” (2004).
Where a name gives a salt, the structure may show the parent alone.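 Method: 48-hour compound exposure of cells in 96-well plates, five concentrations, linear interpolation of endpoints. At the GI50, growth is halved.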 Calls of active or inactive are those of the source. No stated cut-off is given here; in the data, active = GI50 up to about 1.1 µM and inactive = higher.

Legend:
Assay in all cases: NCI-60 cell line screen, 48 h
[1] = tested on: A549
[2] = tested on: ACHN
[3] = tested on: DLD-1
[4] = tested on: DMS-273
[5] = tested on: HCT-116
[6] = tested on: Hs-578T
[7] = tested on: KM-20L2
[8] = tested on: LXFL 529
[9] = tested on: M14
[10] = tested on: MDA-N
[11] = tested on: NCI-H226
[12] = tested on: NCI-H23
[13] = tested on: NCI-H460
[14] = tested on: NCI-H522
[15] = tested on: OVCAR-4
[16] = tested on: PC-3
[17] = tested on: SF-268
[18] = tested on: SK-MEL-5
[19] = tested on: SK-OV-3
[20] = tested on: T47D

Measured: GI50

N#CC(C#N)SCc1ccccc1
inactive: [1] 16.6 µM | [2] 40.4 µM | [3] 36.6 µM | [4] 39.2 µM | [5] 6.55 µM | [6] 26.5 µM | [7] 32.3 µM | [8] 33.7 µM | [9] 11.5 µM | [10] 1.63 µM | [11] 30.1 µM | [12] 10.5 µM | [13] 14.7 µM | [14] 5.86 µM | [15] 23.7 µM | [16] 2.79 µM | [17] 29.4 µM | [18] 11.9 µM | [19] 24.4 µM | [20] 18.5 µM

COC(=O)/C(C=O)=C/Sc1ccccc1
inactive: [1] 11.3 µM | [2] 26.4 µM | [3] 21.4 µM | [4] 18.4 µM | [5] 22.5 µM | [7] 29.7 µM | [8] 18.3 µM | [9] 16.6 µM | [11] 15.8 µM | [12] 36.4 µM | [13] 32.1 µM | [14] 11.7 µM | [15] 45 µM | [17] 11 µM | [18] 14.2 µM | [19] 42.9 µM

C[n+]1c2ccccc2c(NC(CCCNC(=N)N)C(=O)O)c2ccccc21 (configuration not stated)
inactive: [1] > 100 µM | [2] > 100 µM | [3] > 100 µM | [4] > 100 µM | [5] > 100 µM | [7] > 100 µM | [8] > 100 µM | [9] > 100 µM | [11] > 100 µM | [12] > 100 µM | [13] > 100 µM | [14] 99.1 µM | [15] > 100 µM | [17] > 100 µM | [18] 85.9 µM | [19] > 100 µM

COc1ccc2[nH]c3c(c2c1)[C@H]1CCC(C(C)(C)C)C[C@H]1[C@H]1C(=O)N(c2ccccc2)C(=O)[C@@H]31 (some centres not stated)
inactive: [1] 12.7 µM | [2] 4.17 µM | [3] 13.5 µM | [4] 32.7 µM | [5] 12.4 µM | [7] > 51.4 µM | [8] 69.3 µM | [9] 8.22 µM | [11] 27.6 µM | [12] 12.1 µM | [13] 6.9 µM | [14] 12.1 µM | [15] 3.3 µM | [17] 13.1 µM | [18] > 47.6 µM | [19] 15.6 µM

CNNCc1ccc(C(=O)NC(C)C)cc1 [PROCARBAZINE HYDROCHLORIDE]
inactive: [1] 335 µM | [2] > 500 µM | [3] > 500 µM | [4] > 500 µM | [5] > 500 µM | [6] > 500 µM | [7] 380 µM | [8] > 500 µM | [9] > 500 µM | [10] > 500 µM | [11] > 381 µM | [12] > 500 µM | [13] > 500 µM | [14] > 500 µM | [15] > 500 µM | [16] > 500 µM | [17] > 500 µM | [18] 385 µM | [19] > 493 µM | [20] > 500 µM

COC(=O)C1=C(C[S+]([O-])c2ccccc2[N+](=O)[O-])ON(C)C1c1ccccc1 (configuration not stated)
inactive: [1] 47.2 µM | [2] 31.2 µM | [3] 30.9 µM | [4] 28.1 µM | [5] 25.5 µM | [7] 21.5 µM | [8] 42 µM | [9] 94 µM | [11] 37.8 µM | [12] > 100 µM | [13] > 100 µM | [14] 18.4 µM | [15] 66.7 µM | [17] 27.5 µM | [18] 38.8 µM | [19] > 100 µM

O=C1OC(c2ccccc2)=N/C1=C/NC(Cc1c[nH]c2ccccc12)C(=O)O (configuration not stated)
inactive: [1] > 100 µM | [2] > 100 µM | [3] > 100 µM | [4] > 100 µM | [5] > 100 µM | [7] > 100 µM | [8] > 100 µM | [9] > 100 µM | [11] > 100 µM | [12] > 100 µM | [13] > 100 µM | [14] 68.4 µM | [15] > 100 µM | [17] > 100 µM | [18] > 100 µM | [19] > 100 µM

O=c1cc(-c2ccc(Cl)cc2)oc2cc(OCCCOc3ccc4c(=O)cc(-c5ccc(Cl)cc5)oc4c3)ccc12
inactive: [1] > 100 µM | [2] > 100 µM | [3] > 100 µM | [4] > 100 µM | [5] > 100 µM | [7] > 100 µM | [8] > 100 µM | [9] > 100 µM | [11] > 100 µM | [12] > 100 µM | [13] > 100 µM | [14] > 100 µM | [15] > 100 µM | [17] > 100 µM | [18] > 100 µM | [19] > 100 µM

COC(=O)c1cc(CC(C)C)c2c(c1)[nH]c1ccccc12
inactive: [1] > 100 µM | [2] > 100 µM | [3] > 100 µM | [4] 53.7 µM | [5] > 100 µM | [7] > 100 µM | [8] > 100 µM | [9] > 100 µM | [11] 28.7 µM | [12] 49 µM | [13] > 100 µM | [14] 68.2 µM | [15] > 100 µM | [17] > 100 µM | [18] 78.7 µM | [19] > 100 µM
